In test [1] the test system is TNF-α secretion from RAW264.7 cells. Put plainly: Inhibition of CpG-ODN-induced TNF-α secretion from RAW264.7 cells (ELISA). Conditions: for activity compared with P13 (inhibition of TNF-α after stimulation of RAW264.7 cells with CpG): SAR, versus P13; for Percent Inhibition of TNF-α secretion, CpG Stimulation / Inhibition of TNF-α secretion (percent inhibition) / Percent Inhibition of TNF-α secretion: RAW264.7, 4 hours; for Percent Inhibition of TNF-α secretion, CpG Stimulation: 1.25 ug/ml CpG-ODN; for Inhibition of TNF-α secretion (percent inhibition) / Percent Inhibition of TNF-α secretion: 1 μg/ml CpG-ODN. The format is cell-based, murine. The procedure:
RAW264.7 cells were plated at 1.5×10^5 cells/well-3×10^5 cells/well in 48-well plates. After 24 hours, the cells were incubated with peptides at various concentrations at room temperature in triplicate either before, simultaneous with, or after activation with various PAMPs for 18 hours. Cell-free supernatants were analyzed for cytokines by ELISA, in quadruplicate. RAW264.7 cells were stimulated with either CpG-ODN (1 μg/ml or 1.25 μg/ml), LPS (about 1 ng/ml), Poly (I:C) (about 10 μg/ml), flagellin (about 5 ng/ml), or zymosan (about 10 μg/ml). Dose response curves were done with each PAMP to determine optimal stimulation concentration. For CpG-ODN stimulation, cells were incubated for 4 hours at 37° C., supernatants collected, and TNF-α measured by ELISA. Any cytokine involved in inflammatory disease mediated toll receptor signaling can be measured using similar assays.
The effect of several peptides on TNF-α secretion from RAW264.7 cells in response to stimulation by CpG-ODN was studied. Each peptide was initially tested at 3 concentrations, 37 μM, 22.2 μM, and 11.1 μM. […] The peptides were then tested at 11.1 μM, 7.4 μM, and 3.7 μM (Table 3). […] Cell viability was examined for each peptide at the concentrations tested for TNF-α inhibition.
Inhibition of TNF-α secretion by various T-peptides was examined. RAW264.7 cells were plated at 3×10^5 cells/well in 48-well plates. After 24 h the cells were incubated with peptide at various concentrations at room temperature in triplicate for 15 minutes and then stimulated with 1.25 ug/ml CpG-ODN or 1 ng/ml LPS. Cells were then incubated for 4 hours at 37° C., supernatants collected, and TNF-α measured by ELISA. Percent inhibition was calculated by comparing TNF-α secretion from cells incubated with peptide to control cells with no peptide treatment. The inhibitive effects of peptides T3 (SEQ ID NO: 319), T11 (SEQ ID NO: 327), T21 (SEQ ID NO: 337), T36 (SEQ ID NO: 352), T37 (SEQ ID NO: 353), T51 (SEQ ID NO: 367), and T52 (SEQ ID NO: 368) were compared to inhibition by an analogue of P13 (SEQ ID NO: 369) having a sequence of nine arginine residues at the C-terminus (P13-R^9 (SEQ ID NO: 378)). (Table 4).
Background: In an ELISA, binding on a coated surface is turned into a signal by an enzyme label.

Test [2] has the same test system. The test is described as above. The format is cell-based, murine. Conditions: peptide 3.1 μM (Table 3), 1 μg/ml CpG-ODN, 4 hours.

Regarding AIIKVYVYACIRRRRRRRRR [T52-R^9], the “activity compared with P13 (inhibition of TNF-α after stimulation of RAW264.7 cells with CpG)” value in test [1] is recorded as “superior activity”. For the same sequence, the “Percent Inhibition of TNF-α secretion, CpG Stimulation” value (“Percent Inhibition … CpG Stimulation” for short) turned out to be 97.8% in test [1] (peptide 7.1 μM), 99.2% in test [1] (peptide 11.1 μM) and 100% in test [1] (peptide 22 μM).
Consider AIVKLTVYACIRRRRRRRRR [T51-R^9], for which the “activity compared with P13 (inhibition of TNF-α after stimulation of RAW264.7 cells with CpG)” value in test [1] is reported as “superior activity”. The entries for the “Percent Inhibition … CpG Stimulation” value in test [1] (peptide 7.1 μM), in test [1] (peptide 11.1 μM) and in test [1] (peptide 22 μM) were 94%, 98% and 99.7%, respectively.
Turning to DIIKLTVYDCIRRRRRRRRR [T36-R^9], the “activity compared with P13 (inhibition of TNF-α after stimulation of RAW264.7 cells with CpG)” value in test [1] was “superior activity”. The “Percent Inhibition … CpG Stimulation” value in test [1] (peptide 7.1 μM) worked out at 50%; in test [1] (peptide 11.1 μM) it was 70%; in test [1] (peptide 22 μM), 82%.
On to DIVKLYVYDCIRRRRRRRRR [T21-R^9], for which, in test [1], the “activity compared with P13 (inhibition of TNF-α after stimulation of RAW264.7 cells with CpG)” value is reported as “superior activity”. In addition, the “Percent Inhibition … CpG Stimulation” value in test [1] (peptide 7.1 μM) was 69%; in test [1] (peptide 11.1 μM) it was 90%; in test [1] (peptide 22 μM) it was 98%.
For DIVKVTVYDCIRRRRRRRRR [T37-R^9] the same measures were “superior activity”, 46%, 87% and 93%.
Consider “EMFTILEEYFMYRGLLGLRIKRRRRRRRRR (C-terminal nona-arginine (R9)) [74(S10)-R^9]”, for which the “Inhibition of TNF-α secretion (percent inhibition)” value (from here on “Inhibition … (percent inhibition)”) is 80% in test [1] (peptide 7 μM (Table 3)), 92% in test [1] (peptide 11 μM (Table 3)) and 35% in test [2]. For the same sequence, the “Percent Inhibition of TNF-α secretion” value amounted to 91% in test [1] (peptide 11.1 μM), 100% in test [1] (peptide 22.2 μM) and 100% in test [1] (peptide 37 μM).
Consider “EMFTILEEYFMYRGLLGLRIKYGRLFNEIRRRRRRRRR (C-terminal nona-arginine (R9)) [42(S1)-R^9]”, for which the “Inhibition … (percent inhibition)” value turned out to be 67% in test [1] (peptide 7 μM (Table 3)), 83% in test [1] (peptide 11 μM (Table 3)) and 37% in test [2]. Besides, the “Percent Inhibition of TNF-α secretion” value was 85% in test [1] (peptide 11.1 μM), 96% in test [1] (peptide 22.2 μM) and 97% in test [1] (peptide 37 μM).
Take “EMFTILEEYFMYRGLLGLRIKYGRLFNRRRRRRRRR (C-terminal nona-arginine (R9)) [68(S4)-R^9]”: the “Inhibition … (percent inhibition)” value in test [1] (peptide 7 μM (Table 3)) turned out to be 83%; in test [1] (peptide 11 μM (Table 3)) it was 95%; in test [2], 69%. In addition, the “Percent Inhibition of TNF-α secretion” value was 95% in test [1] (peptide 11.1 μM), 100% in test [1] (peptide 22.2 μM) and 100% in test [1] (peptide 37 μM).
As to “EMFTILEEYFMYRGLLGLRIKYGRLFRRRRRRRRR (C-terminal nona-arginine (R9)) [69(S5)-R^9]”, the “Inhibition … (percent inhibition)” value in test [1] (peptide 7 μM (Table 3)) was found to be 94%; in test [1] (peptide 11 μM (Table 3)), 93%; in test [2], 66%. Besides, the “Percent Inhibition of TNF-α secretion” value in test [1] (peptide 11.1 μM) worked out at 93%; in test [1] (peptide 22.2 μM) it was 100%; in test [1] (peptide 37 μM) it was 100%.
As to “EMFTILEEYFMYRGLLGLRIKYGRLRRRRRRRRR (C-terminal nona-arginine (R9)) [70(S6)-R^9]”, the “Inhibition … (percent inhibition)” value in test [1] (peptide 7 μM (Table 3)) stood at 87%; in test [1] (peptide 11 μM (Table 3)), 94%; in test [2] it was 63%. In addition, the “Percent Inhibition of TNF-α secretion” value is on record as 93% in test [1] (peptide 11.1 μM), 100% in test [1] (peptide 22.2 μM) and 100% in test [1] (peptide 37 μM).
Regarding “EMFTILEEYFMYRGLLGLRIKYGRRRRRRRRR (C-terminal nona-arginine (R9)) [72(S8)-R^9]”, the “Inhibition … (percent inhibition)” value in test [1] (peptide 7 μM (Table 3)) stood at 80%; in test [1] (peptide 11 μM (Table 3)), 93%; in test [2], 43%. Moreover, the results for the “Percent Inhibition of TNF-α secretion” value in test [1] (peptide 11.1 μM), in test [1] (peptide 22.2 μM) and in test [1] (peptide 37 μM) were 92%, 100% and 100%, respectively.
For “EMFTILEEYFMYRGLLGLRIKYGRRRRRRRRRR (C-terminal nona-arginine (R9)) [71(S7)-R^9]”, the entries for the “Inhibition … (percent inhibition)” value in test [1] (peptide 7 μM (Table 3)), in test [1] (peptide 11 μM (Table 3)) and in test [2] were 29%, 38% and 21%, respectively. The “Percent Inhibition of TNF-α secretion” value in test [1] (peptide 11.1 μM) was 56%; in test [1] (peptide 22.2 μM), 82%; in test [1] (peptide 37 μM) it was 91%.
“EMFTILEEYFMYRGLLGLRIKYRRRRRRRRR (C-terminal nona-arginine (R9)) [73(S9)-R^9]”: the figures for the “Inhibition … (percent inhibition)” value in test [1] (peptide 7 μM (Table 3)), in test [1] (peptide 11 μM (Table 3)) and in test [2] were 76%, 85% and 3%, respectively. Besides, the “Percent Inhibition of TNF-α secretion” value is given as 84% in test [1] (peptide 11.1 μM), 100% in test [1] (peptide 22.2 μM) and 100% in test [1] (peptide 37 μM).
Take “EMFTILEEYFMYRGLLGLRIRRRRRRRRR (C-terminal nona-arginine (R9)) [75(S11)-R^9]”: the “Inhibition … (percent inhibition)” value worked out at 84% in test [1] (peptide 7 μM (Table 3)), 93% in test [1] (peptide 11 μM (Table 3)) and 31% in test [2]. Besides, the “Percent Inhibition of TNF-α secretion” value is given as 92% in test [1] (peptide 11.1 μM), 97% in test [1] (peptide 22.2 μM) and 98% in test [1] (peptide 37 μM).
In the case of “EMFTILEEYFMYRGLLGLRRRRRRRRR (C-terminal nona-arginine (R9)) [77(S13)-R^9]”, the results for the “Inhibition … (percent inhibition)” value in test [1] (peptide 7 μM (Table 3)), in test [1] (peptide 11 μM (Table 3)) and in test [2] were 77%, 81% and 18%, respectively. The “Percent Inhibition of TNF-α secretion” value in test [1] (peptide 11.1 μM) is 84%; in test [1] (peptide 22.2 μM), 89%; in test [1] (peptide 37 μM), 93%.
With “FTILEEYFMYRGLLGLRIRRRRRRRRR (C-terminal nona-arginine (R9)) [103(S19)-R^9]”, the figures for the “Inhibition … (percent inhibition)” value in test [1] (peptide 7 μM (Table 3)) and in test [1] (peptide 11 μM (Table 3)) were 87% and 93%, respectively. The “Percent Inhibition of TNF-α secretion” value came out at 93% in test [1] (peptide 11.1 μM) and 99% in test [1] (peptide 22.2 μM).
For “ILEEYFMYRGLLGLRIRRRRRRRRR (C-terminal nona-arginine (R9)) [105(S21)-R^9]”, the “Inhibition … (percent inhibition)” value in test [1] (peptide 7 μM (Table 3)) came to 52%; in test [1] (peptide 11 μM (Table 3)), 62%. In addition, the “Percent Inhibition of TNF-α secretion” value in test [1] (peptide 11.1 μM) is listed as 62%; in test [1] (peptide 22.2 μM) it was 91%.
Regarding “LEEYFMYGLLGLRIRRRRRRRRR (C-terminal nona-arginine (R9)) [106(S22)-R^9]”, the figures for the “Inhibition … (percent inhibition)” value in test [1] (peptide 7 μM (Table 3)) and in test [1] (peptide 11 μM (Table 3)) were 53% and 70%, respectively. For the same sequence, the “Percent Inhibition of TNF-α secretion” value in test [1] (peptide 11.1 μM) worked out at 70%; in test [1] (peptide 22.2 μM), 92%.
“MFTILEEYFMYRGLLGLRIRRRRRRRRR (C-terminal nona-arginine (R9)) [102(S18)-R^9]”: the “Inhibition … (percent inhibition)” value in test [1] (peptide 7 μM (Table 3)) was found to be 48%; in test [1] (peptide 11 μM (Table 3)) it was 72%. For the same sequence, the “Percent Inhibition of TNF-α secretion” value in test [1] (peptide 11.1 μM) is given as 72%; in test [1] (peptide 22.2 μM), 91%.
For the sequence “TILEEYFMYRGLLGLRIRRRRRRRRR (C-terminal nona-arginine (R9)) [104(S20)-R^9]”, the entries for the “Inhibition … (percent inhibition)” value in test [1] (peptide 7 μM (Table 3)) and in test [1] (peptide 11 μM (Table 3)) were 60% and 74%, respectively. Also, the “Percent Inhibition of TNF-α secretion” value in test [1] (peptide 11.1 μM) is recorded as 74%; in test [1] (peptide 22.2 μM) it was 93%.

These data come from US20140378395A1, “Peptides for the Treatment of Hearing” (13Therapeutics, Inc., priority 2011, published 2014).
